Assay results from PMC5607274, “An iterative compound screening contest method for identifying target protein inhibitors using the tyrosine-protein kinase Yes” (Scientific Reports, 2017).

Molecular target: T1, human recombinant Yes [a.a. 2–543 (end)] (Homo sapiens, UniProt P07947)
T1 construct: human recombinant Yes [a.a; 2–543 (end)]; purchased BPS Bioscience 40488
Assay: ADP-Glo kinase assay, inhibition rates of Yes phosphorylation activity (first and second screening)
Type: biochemical
Details: first screening; mean of n = 4 wells; 10 μmol L−1 compound
Outline: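 ADP-Glo luminescence measured inhibition of human recombinant Yes (a.a. 2–543) phosphorylation activity. In the first screen, each compound ran in 4 wells and inhibition rates were averaged. The second screen retested hits as compounds dissolved from fresh powder.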

T1 sequence (P07947 2-543): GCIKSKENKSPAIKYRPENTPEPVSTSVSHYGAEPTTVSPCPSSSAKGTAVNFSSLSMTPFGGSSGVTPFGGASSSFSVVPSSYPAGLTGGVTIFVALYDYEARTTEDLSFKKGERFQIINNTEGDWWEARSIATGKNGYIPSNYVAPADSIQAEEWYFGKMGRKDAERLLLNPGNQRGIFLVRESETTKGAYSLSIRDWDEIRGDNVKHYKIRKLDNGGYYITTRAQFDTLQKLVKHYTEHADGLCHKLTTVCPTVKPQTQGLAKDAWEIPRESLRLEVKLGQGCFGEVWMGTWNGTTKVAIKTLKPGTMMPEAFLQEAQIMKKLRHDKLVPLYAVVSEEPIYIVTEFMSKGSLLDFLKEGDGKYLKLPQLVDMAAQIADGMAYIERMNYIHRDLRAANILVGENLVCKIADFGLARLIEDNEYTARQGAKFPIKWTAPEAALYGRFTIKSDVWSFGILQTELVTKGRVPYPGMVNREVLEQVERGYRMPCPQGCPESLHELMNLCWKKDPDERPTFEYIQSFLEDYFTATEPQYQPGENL

| SMILES | First screening IR (inhibition rate) |
| --- | --- |
| Cn1c(=O)c2cc(C(=O)Nc3ccc(F)c(Cl)c3)sc2n(C)c1=O [Compound Z818806818] | -3% |
| CC(C)(C)c1[nH]ncc1/C=C1/CCn2c1nc1cc(Cl)ccc1c2=O [Compound Z821199838] | -3% |
| Cc1cccc(CS(=O)(=O)CCS(C)(=O)=O)c1 [Compound Z822335078] | -2% |
| CC(C)(C)c1ncc(C(=O)Nc2ccc(F)c(NC(=O)C3CC3)c2)s1 [Compound Z825945954] | -24% |
| CS(=O)(=O)c1ccc(C(=O)NCc2ccc(-n3ccnc3)c(F)c2)cc1 [Compound Z826157056] | -29% |
| CC(C)n1ncc2cc(C(=O)NCc3ccc(-n4ccnc4)c(F)c3)cnc21 [Compound Z826159196] | 9% |
| Cc1cccc(NC(=O)CN2CCN(C(=O)CN3C(=O)Cn4c(cc5ccccc54)C3=O)CC2)c1C [Compound Z826666316] | -25% |
| Cc1cc(NC(=O)c2ccn(-c3ccccc3)n2)n(CCC#N)n1 [Compound Z826713438] | 5% |
| Cc1cc(NC(=O)/C=C/c2csc(C)n2)n(CCC#N)n1 [Compound Z826713788] | -15% |
| Cc1cc(NC(=O)c2cc3c(F)cccc3s2)n(CCC#N)n1 [Compound Z826713980] | -5% |
| Cc1nn(C)c2nc(-c3ccccc3)cc(C(=O)Nc3ccc4nc(CN5CCOCC5)[nH]c4c3)c12 [Compound Z826860216] | 35% |
| Oc1cccc(CN(c2ncnc3ccsc23)C2CC2)c1 [Compound Z826941792] | 1% |
| O=S1(=O)CCC(N2CCN(Cc3cc(Cl)cc(C4CCCCC4)c3O)CC2)C1 (stereo not shown) [Compound Z827167912] | 7% |
| CC1CN(C(=O)Nc2ccccn2)CCN1C(=O)Nc1ccccn1 (stereo not shown) [Compound Z827524892] | -21% |
| CCCN(C1CCS(=O)(=O)C1)S(=O)(=O)CCC (stereo not shown) [Compound Z830071152] | 16% |
| Cc1cccc(C)c1OCC(O)CNc1ncnc2sc(C)c(C)c12 (stereo not shown) [Compound Z838103434] | 13% |
| O=C(N/N=C/C=C/c1ccco1)c1ccc(-c2ccc(F)cc2)s1 [Compound Z839335172] | 6% |
| CC(=O)Nc1ccc(/C=C/C(=O)c2ccccc2-n2cccn2)cc1 [Compound Z839413590] | -15% |
| CCOC(=O)COc1ccc(C2(C)NC(=O)c3cc(Cl)ccc3N2)cc1 (stereo not shown) [Compound Z839958866] | 5% |
| CCc1c(C(=O)CN2CCCC2c2ccsc2)[nH]c(C)c1C(C)=O (stereo not shown) [Compound Z839968520] | 0% |
| O=C(OCc1noc(C2CC2)n1)c1c[nH]cc1-c1ccc(Cl)s1 [Compound Z847574324] | 10% |
| Cc1cc(C)n(C(C)C(=O)Nc2ccc(NC(=O)C(C)(C)C)cc2Cl)n1 (stereo not shown) [Compound Z850607168] | 3% |
| C/C(=C\C(=O)N1CCN(c2cnccn2)CC1)C12CC3CC(CC(C3)C1)C2 [Compound Z850748812] | 12% |
| NC(=O)C1(CNC(=O)c2cc3c(cc2O)CCCC3)CCOCC1 [Compound Z856541214] | 17% |

| SMILES | First screening IR (inhibition rate) |
| --- | --- |
| COC(=O)c1sc2ncc(/C=C/C(=O)c3cccnc3)cc2c1C [Compound Z871886494] | 66% |
| COC(=O)c1sc2ncc(/C=C3\C(=O)Nc4ccccc43)cc2c1C [Compound Z872035512] | -4% |
| Cc1nc(-c2ccncc2)[nH]c(=O)c1CCC(=O)NCc1ccncc1 [Compound Z873001918] | 12% |
| CC1CCN(c2ccc([N+](=O)[O-])cc2C(=O)N2CCN(Cc3cn4cc(Cl)ccc4n3)CC2)CC1 [Compound Z901305410] | -17% |
| Cc1cc(NC(=O)c2cc(-c3cccs3)on2)n(CCC#N)n1 [Compound Z908095506] | -3% |
| Cc1c(C(=O)N(C2CCC(C)CC2)C2CC2)cnn1-c1ccc(=O)[nH]n1 (stereo not shown) [Compound Z908597782] | -8% |
| CN1CCC(N(C)c2ccc(NC(=O)c3c(O)cc(F)cc3F)cc2)CC1 [Compound Z910632940] | 6% |
| COc1ccc(C(=O)N2CCCC2)cc1NC(=O)CC1CCCC1 [Compound Z913725738] | 7% |
| COc1ccc(CN2CCC(CNC(=O)c3ccccc3SCc3c(C)noc3C)CC2)cc1 [Compound Z914096084] | -7% |
| O=C(CN1CCN(C(=O)c2oc3ccccc3c2CSc2nccc(=O)[nH]2)CC1)N1CCCCC1 [Compound Z915764402] | -15% |
| Cc1sc2nc(CN3CCC(C)CC3)nc(N3CCCN(C(=O)Cc4ccccn4)CC3)c2c1C [Compound Z915925636] | 0% |
| COc1cc(NC(=O)Cc2c(C)[nH]c3ccccc23)c(C(N)=O)cc1OC [Compound Z917537988] | -25% |
| CC(Oc1cccc(Cl)c1Cl)C(=O)Nc1ccc2nc[nH]c(=O)c2c1 (stereo not shown) [Compound Z927306002] | -9% |
| COc1ccccc1-c1cc(NC(=O)c2ccc(Cn3cncn3)cc2)n[nH]1 [Compound Z927972178] | 13% |
| FC(F)(F)c1ccnc(Nc2ccc3nc(C4CC4)sc3c2)n1 [Compound Z929767438] | -3% |
| COc1ccc(N(C)C(=O)c2[nH]nc(-c3ccccc3)c2Br)cn1 [Compound Z934680220] | -1% |
| CCOc1ccc(C(=O)Nc2ccc3c(c2)C(=O)NC3)cc1OCC [Compound Z943285536] | 18% |
| O=c1[nH]ncc(NCc2ccc(Cn3cnc4ccccc43)cc2)c1Cl [Compound Z951371090] | 5% |
| Cc1noc(C(C)NC(=O)C2CSCN2C(=O)c2ccccc2)n1 (stereo not shown) [Compound Z954394146] | -12% |
| Cc1c(NC(=O)C2CC(=O)N(c3ccc4c(c3)CCC4)C2)n[nH]c1C1CC1 (stereo not shown) [Compound Z954497746] | -9% |
| CCN1CCN(c2cc(CNC(=O)c3cn(-c4ccccc4)nc3-c3ccc(OC)cc3)ccn2)CC1 [Compound Z955363064] | -5% |
| O=C(Nc1cc(-c2ccc(Br)s2)[nH]n1)c1ccc2c(c1)COC2 [Compound Z956276516] | 68% |
| CC(C)c1cccc(N(C)C(=O)c2cccnc2S(=O)(=O)C(F)(F)F)c1 [Compound Z959760312] | 32% |

Same assay, conditions: second screening, dissolved from fresh powder; n = 4; 10 μmol L−1 compound

| SMILES | Second screening IR (inhibition rate) |
| --- | --- |
| Cc1nn(C)c2nc(-c3ccccc3)cc(C(=O)Nc3ccc4nc(CN5CCOCC5)[nH]c4c3)c12 [Compound Z826860216] | -11% |
| COC(=O)c1sc2ncc(/C=C/C(=O)c3cccnc3)cc2c1C [Compound Z871886494] | 12% |
